Target: T1, human PKCθ full length enzyme (Homo sapiens, UniProt Q04759)
T1 construct: human PKCθ full length enzyme (Panvera Catalog No. P2996); purchased Panvera P2996
Assay: PKCθ IMAP Assay
Format: biochemical
Conditions: average value when one or more samples were tested; ATP 6 uM, PKCθ 1 nM
In short: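 IMAP fluorescence polarization after 20 min with binding beads measured phosphorylation of 100 nM 5FAM-peptide. Reactions held 1 nM full-length human PKCθ, 6 uM ATP, 5% DMSO and DTT-containing buffer, 25 min at room temperature. Compounds tested as 2:1 serial dilutions; controls lacked ATP or enzyme.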

T1 sequence (Q04759 whole entry): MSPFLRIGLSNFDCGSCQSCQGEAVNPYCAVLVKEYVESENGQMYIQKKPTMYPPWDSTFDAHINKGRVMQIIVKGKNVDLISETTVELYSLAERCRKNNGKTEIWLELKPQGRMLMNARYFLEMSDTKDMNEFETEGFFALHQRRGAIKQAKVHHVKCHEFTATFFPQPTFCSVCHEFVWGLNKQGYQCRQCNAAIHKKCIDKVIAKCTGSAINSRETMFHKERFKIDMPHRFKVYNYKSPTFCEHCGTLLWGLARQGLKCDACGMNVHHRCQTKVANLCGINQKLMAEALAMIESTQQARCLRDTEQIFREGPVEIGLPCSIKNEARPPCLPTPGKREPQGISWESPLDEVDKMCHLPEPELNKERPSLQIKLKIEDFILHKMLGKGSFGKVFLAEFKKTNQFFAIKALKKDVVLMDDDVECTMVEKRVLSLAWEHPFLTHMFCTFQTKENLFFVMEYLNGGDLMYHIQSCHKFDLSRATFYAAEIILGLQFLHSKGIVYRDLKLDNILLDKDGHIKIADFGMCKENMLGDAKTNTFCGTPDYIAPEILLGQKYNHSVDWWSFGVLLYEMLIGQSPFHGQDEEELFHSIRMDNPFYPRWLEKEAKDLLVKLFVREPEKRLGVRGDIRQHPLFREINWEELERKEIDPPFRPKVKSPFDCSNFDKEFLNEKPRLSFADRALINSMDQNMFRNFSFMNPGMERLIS

IC50 [nM]	Compound
18	CON(C)C(=O)c1cccc(-c2cc3c(Nc4ccc5[nH]ccc5c4C)c(C#N)cnc3s2)c1 [Compound 354, 3-{5-cyano-4-[(4-methyl-1H-indol-5-yl)amino]thieno[2,3-b]pyridin-2-yl}-N-methoxy-N-methylbenzamide]
48	CON(C)C(=O)c1ccc(-c2cc3c(Nc4ccc5[nH]ccc5c4C)c(C#N)cnc3s2)cc1 [Compound 357, 4-{5-cyano-4-[(4-methyl-1H-indol-5-yl)amino]thieno[2,3-b]pyridin-2-yl}-N-methoxy-N-methylbenzamide]
10	CONC(=O)c1ccc(-c2cc3c(Nc4ccc5[nH]ccc5c4C)c(C#N)cnc3s2)cc1 [Compound 358, 4-{5-cyano-4-[(4-methyl-1H-indol-5-yl)amino]thieno[2,3-b]pyridin-2-yl}-N-methoxybenzamide]
245	CS(=O)(=O)Nc1cccc(-c2cc3c(Nc4ccc5[nH]ccc5c4)c(C#N)cnc3s2)c1 [Compound 359, N-{3-[5-cyano-4-(1H-indol-5-ylamino)thieno[2,3-b]pyridin-2-yl]phenyl}methanesulfonamide]
23	Cc1c(Nc2c(C#N)cnc3sc(-c4cccc(NS(C)(=O)=O)c4)cc23)ccc2[nH]ccc12 [Compound 360, N-(3-{5-cyano-4-[(4-methyl-1H-indol-5-yl)amino]thieno[2,3-b]pyridin-2-yl}phenyl)methanesulfonamide]
43	Cc1c(Nc2c(C#N)cnc3sc(-c4ccc(NS(C)(=O)=O)cc4)cc23)ccc2[nH]ccc12 [Compound 361, N-(4-{5-cyano-4-[(4-methyl-1H-indol-5-yl)amino]thieno[2,3-b]pyridin-2-yl}phenyl)methanesulfonamide]
72	Cc1c(Nc2c(C#N)cnc3sc(-c4ccc5ccccc5c4)cc23)ccc2[nH]ccc12 [Compound 362, 4-[(4-methyl-1H-indol-5-yl)amino]-2-(2-naphthyl)thieno[2,3-b]pyridine-5-carbonitrile]
401	Cc1c(Nc2c(C#N)cnc3sc(-c4cccc5ccccc45)cc23)ccc2[nH]ccc12 [Compound 363, 4-[(4-methyl-1H-indol-5-yl)amino]-2-(1-naphthyl)thieno[2,3-b]pyridine-5-carbonitrile]
22	COc1ccccc1-c1cc2c(Nc3ccc4[nH]ccc4c3C)c(C#N)cnc2s1 [Compound 364, 2-(2-methoxyphenyl)-4-[(4-methyl-1H-indol-5-yl)amino]thieno[2,3-b]pyridine-5-carbonitrile]
103	Cc1c(Nc2c(C#N)cnc3sc(-c4cc(C=O)cc(OC(C)C)c4)cc23)ccc2[nH]ccc12 [Compound 365, 2-(3-formyl-5-isopropoxyphenyl)-4-[(4-methyl-1H-indol-5-yl)amino]thieno[2,3-b]pyridine-5-carbonitrile]
106	COc1ccc(C)cc1-c1cc2c(Nc3ccc4[nH]ccc4c3C)c(C#N)cnc2s1 [Compound 366, 2-(2-methoxy-5-methylphenyl)-4-[(4-methyl-1H-indol-5-yl)amino]thieno[2,3-b]pyridine-5-carbonitrile]
7	CCOc1ccc(CN(C)C)cc1-c1cc2c(Nc3ccc4[nH]ccc4c3C)c(C#N)cnc2s1 [Compound 367, 2-{5-[(dimethylamino)methyl]-2-ethoxyphenyl}-4-[(4-methyl-1H-indol-5-yl)amino]thieno[2,3-b]pyridine-5-carbonitrile]
100	Cc1ccc(CN(C)C)cc1-c1cc2c(Nc3ccc4[nH]ccc4c3C)c(C#N)cnc2s1 [Compound 368, 2-{5-[(dimethylamino)methyl]-2-methylphenyl}-4-[(4-methyl-1H-indol-5-yl)amino]thieno[2,3-b]pyridine-5-carbonitrile]
30	COc1ccc(C(=O)N(C)C)cc1-c1cc2c(Nc3ccc4[nH]ccc4c3C)c(C#N)cnc2s1 [Compound 369, 3-{5-cyano-4-[(4-methyl-1H-indol-5-yl)amino]thieno[2,3-b]pyridin-2-yl}-4-methoxy-N,N-dimethylbenzamide]

Reference: patent publication US20070082880A1 (priority 2005, published 2007)
